Assay results as given in PubChem BioAssay (NCI).
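48-hour exposure; five concentrations; linearly interpolated endpoints. GI50 marks 50% less growth. TGI marks complete inhibition of growth.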

Columns and labels:
Assay in all cases: NCI-60 cell line screen, 48 h
786-0 renal = system: 786-0 renal
A498 renal = system: A498 renal
A549 NSCLC = system: A549 NSCLC
ACHN renal = system: ACHN renal
BT-549 breast = system: BT-549 breast
CAKI-1 renal = system: CAKI-1 renal
CCRF-CEM leukemia = system: CCRF-CEM leukemia
COLO 205 colon = system: COLO 205 colon
DU-145 prostate = system: DU-145 prostate
EKVX NSCLC = system: EKVX NSCLC
HCC-2998 colon = system: HCC-2998 colon
HCT-116 colon = system: HCT-116 colon
HCT-15 colon = system: HCT-15 colon
HL-60(TB) leukemia = system: HL-60(TB) leukemia
HOP-62 NSCLC = system: HOP-62 NSCLC
HOP-92 NSCLC = system: HOP-92 NSCLC
HS 578T breast = system: HS 578T breast
HT29 colon = system: HT29 colon
IGROV1 ovarian = system: IGROV1 ovarian
K-562 leukemia = system: K-562 leukemia
KM12 colon = system: KM12 colon
LOX IMVI melanoma = system: LOX IMVI melanoma
M14 melanoma = system: M14 melanoma
MALME-3M melanoma = system: MALME-3M melanoma
MCF7 breast = system: MCF7 breast
MDA-MB-231 breast = system: MDA-MB-231 breast
MDA-MB-435 = system: MDA-MB-435
MOLT-4 leukemia = system: MOLT-4 leukemia
NCI-H226 lung = system: NCI-H226 lung
NCI-H23 lung = system: NCI-H23 lung
NCI-H460 lung = system: NCI-H460 lung
NCI-H522 lung = system: NCI-H522 lung
NCI/ADR-RES ovarian = system: NCI/ADR-RES ovarian
OVCAR-3 ovarian = system: OVCAR-3 ovarian
OVCAR-5 ovarian = system: OVCAR-5 ovarian
OVCAR-8 ovarian = system: OVCAR-8 ovarian
PC-3 prostate = system: PC-3 prostate
RPMI-8226 leukemia = system: RPMI-8226 leukemia
RXF 393 renal = system: RXF 393 renal
SF-268 CNS = system: SF-268 CNS
SF-295 CNS = system: SF-295 CNS
SF-539 CNS = system: SF-539 CNS
SK-MEL-2 melanoma = system: SK-MEL-2 melanoma
SK-MEL-28 melanoma = system: SK-MEL-28 melanoma
SK-MEL-5 melanoma = system: SK-MEL-5 melanoma
SK-OV-3 ovarian = system: SK-OV-3 ovarian
SN12C renal = system: SN12C renal
SNB-19 CNS = system: SNB-19 CNS
SNB-75 CNS = system: SNB-75 CNS
SR leukemia = system: SR leukemia
SW-620 colon = system: SW-620 colon
T-47D breast = system: T-47D breast
TK-10 renal = system: TK-10 renal
U251 CNS = system: U251 CNS
UACC-257 melanoma = system: UACC-257 melanoma
UACC-62 melanoma = system: UACC-62 melanoma
UO-31 renal = system: UO-31 renal

CCOC(=O)c1cc(C(=O)c2cc(OC)c(OC)c(OC)c2)n2ccccc12
GI50 (786-0 renal): 0.739 µM | TGI (786-0 renal): > 42.7 µM | GI50 (A498 renal): 0.0269 µM | TGI (A498 renal): 9.55 µM | GI50 (A549 NSCLC): 0.134 µM | TGI (A549 NSCLC): > 100 µM | GI50 (ACHN renal): 10.1 µM | TGI (ACHN renal): > 100 µM | GI50 (BT-549 breast): 0.0597 µM | TGI (BT-549 breast): > 100 µM | GI50 (CAKI-1 renal): 0.15 µM | TGI (CAKI-1 renal): > 100 µM | GI50 (CCRF-CEM leukemia): 0.106 µM | TGI (CCRF-CEM leukemia): > 100 µM | GI50 (COLO 205 colon): 0.0588 µM | TGI (COLO 205 colon): 2.57 µM | GI50 (DU-145 prostate): 0.175 µM | TGI (DU-145 prostate): > 100 µM | GI50 (EKVX NSCLC): 0.342 µM | TGI (EKVX NSCLC): > 100 µM | GI50 (HCC-2998 colon): 0.37 µM | TGI (HCC-2998 colon): > 100 µM | GI50 (HCT-116 colon): 0.0353 µM | TGI (HCT-116 colon): > 100 µM | GI50 (HCT-15 colon): 0.0565 µM | TGI (HCT-15 colon): > 100 µM | GI50 (HL-60(TB) leukemia): 0.0586 µM | GI50 (HOP-62 NSCLC): 0.241 µM | TGI (HOP-62 NSCLC): > 67.9 µM | GI50 (HOP-92 NSCLC): 25.6 µM | TGI (HOP-92 NSCLC): > 100 µM | GI50 (HS 578T breast): 0.123 µM | TGI (HS 578T breast): 46.6 µM | GI50 (HT29 colon): 0.0425 µM | TGI (HT29 colon): > 100 µM | GI50 (IGROV1 ovarian): 2.96 µM | TGI (IGROV1 ovarian): > 100 µM | GI50 (K-562 leukemia): 0.0501 µM | TGI (K-562 leukemia): > 100 µM | GI50 (KM12 colon): 0.0744 µM | TGI (KM12 colon): > 100 µM | GI50 (LOX IMVI melanoma): 0.133 µM | TGI (LOX IMVI melanoma): > 100 µM | GI50 (M14 melanoma): 0.0377 µM | TGI (M14 melanoma): 0.388 µM | GI50 (MALME-3M melanoma): 1.06 µM | TGI (MALME-3M melanoma): > 100 µM | GI50 (MCF7 breast): 0.0606 µM | TGI (MCF7 breast): > 100 µM | GI50 (MDA-MB-231 breast): 2.81 µM | TGI (MDA-MB-231 breast): > 100 µM | GI50 (MDA-MB-435): < 0.0182 µM | TGI (MDA-MB-435): 0.205 µM | GI50 (MOLT-4 leukemia): 0.182 µM | TGI (MOLT-4 leukemia): > 100 µM | GI50 (NCI-H226 lung): 19.3 µM | TGI (NCI-H226 lung): > 100 µM | GI50 (NCI-H23 lung): 0.34 µM | TGI (NCI-H23 lung): > 100 µM | GI50 (NCI-H460 lung): 0.0772 µM | TGI (NCI-H460 lung): > 100 µM | GI50 (NCI-H522 lung): 0.0577 µM | TGI (NCI-H522 lung): > 37.1 µM | GI50 (NCI/ADR-RES ovarian): 0.0523 µM | TGI (NCI/ADR-RES ovarian): 2.75 µM | GI50 (OVCAR-3 ovarian): 0.0334 µM | TGI (OVCAR-3 ovarian): 4.11 µM | GI50 (OVCAR-5 ovarian): 0.813 µM | TGI (OVCAR-5 ovarian): > 100 µM | GI50 (OVCAR-8 ovarian): 0.259 µM | TGI (OVCAR-8 ovarian): > 100 µM | GI50 (PC-3 prostate): 0.105 µM | TGI (PC-3 prostate): > 100 µM | GI50 (RPMI-8226 leukemia): 0.121 µM | TGI (RPMI-8226 leukemia): > 100 µM | GI50 (RXF 393 renal): 0.07 µM | TGI (RXF 393 renal): 0.707 µM | GI50 (SF-268 CNS): 1.12 µM | TGI (SF-268 CNS): > 100 µM | GI50 (SF-295 CNS): 0.0558 µM | TGI (SF-295 CNS): 14.6 µM | GI50 (SF-539 CNS): 0.103 µM | TGI (SF-539 CNS): 0.863 µM | GI50 (SK-MEL-2 melanoma): 0.169 µM | TGI (SK-MEL-2 melanoma): > 74.8 µM | GI50 (SK-MEL-28 melanoma): 6.09 µM | TGI (SK-MEL-28 melanoma): > 100 µM | GI50 (SK-MEL-5 melanoma): 0.0409 µM | TGI (SK-MEL-5 melanoma): > 100 µM | GI50 (SK-OV-3 ovarian): 0.164 µM | TGI (SK-OV-3 ovarian): > 100 µM | GI50 (SN12C renal): 1.17 µM | TGI (SN12C renal): > 100 µM | GI50 (SNB-19 CNS): 0.206 µM | TGI (SNB-19 CNS): > 100 µM | GI50 (SNB-75 CNS): 0.0461 µM | TGI (SNB-75 CNS): 21.5 µM | GI50 (SR leukemia): 0.041 µM | TGI (SR leukemia): > 100 µM | GI50 (SW-620 colon): 0.0504 µM | TGI (SW-620 colon): > 100 µM | GI50 (T-47D breast): 1.14 µM | TGI (T-47D breast): > 100 µM | GI50 (TK-10 renal): 11.6 µM | TGI (TK-10 renal): > 100 µM | GI50 (U251 CNS): 0.0899 µM | TGI (U251 CNS): 38.6 µM | GI50 (UACC-257 melanoma): 35.1 µM | TGI (UACC-257 melanoma): > 100 µM | GI50 (UACC-62 melanoma): 0.0439 µM | TGI (UACC-62 melanoma): > 100 µM | TGI (UO-31 renal): > 100 µM
